Experimental data from ChEMBL document CHEMBL1201862, “PubChem BioAssay data set” (2004).
Several values for one entry are separate records, joined by “and”; a condition that tells them apart may be missing. Equal entries are not always repeated.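 Test compounds were applied to cells in 96-well plates for 48 hours at 5 doses. GI50 = concentration required for 50% inhibition of growth.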 Activity calls are given as the source filed them. Rule as the data show it: active = GI50 up to about 1.1 µM and inactive = higher.

Legend:
Assay in all cases: inhibition of tumour cell growth, NCI panel, 48 h
[1] = tested on: 786-0
[2] = tested on: A549
[3] = tested on: COLO 205
[4] = tested on: HCC 2998
[5] = tested on: HOP-62
[6] = tested on: IGROV-1
[7] = tested on: LOX IMVI
[8] = tested on: M14
[9] = tested on: MDA-MB-435
[10] = tested on: MDA-N
[11] = tested on: MOLT-4
[12] = tested on: NCI-H460
[13] = tested on: RPMI-8226
[14] = tested on: SF-268
[15] = tested on: SF-295
[16] = tested on: SK-MEL-28
[17] = tested on: SN12C
[18] = tested on: UACC-257
[19] = tested on: UACC-62

Measured: GI50

CCCCCCCC(=O)N/N=C/c1ccc(Sc2nccn2C)c([N+](=O)[O-])c1
inactive: [1] 14.9 µM | [2] 27.9 µM | [3] 13.7 µM | [4] 13.4 µM | [5] 17.5 µM | [6] 6.79 µM | [7] 10.4 µM | [8] 13.2 µM | [9] 13.6 µM | [10] 16.5 µM | [11] 11.4 µM | [12] 14.9 µM | [13] 13 µM | [14] 15.7 µM | [15] 15.6 µM | [16] 13.9 µM | [17] 14.5 µM | [18] 13.7 µM | [19] 13 µM

C1CSCCCSCCCSCCCSCCCSC1
inactive: [1] 40.2 µM | [2] 28.5 µM | [3] 13.1 µM | [4] 38 µM | [5] 47.4 µM | [6] 31.1 µM | [7] 17.4 µM | [8] 29.7 µM | [9] 41.9 µM | [10] 32.3 µM | [11] 9.82 µM | [12] 14.4 µM | [13] 5.32 µM | [14] 33.1 µM | [15] 22.2 µM | [16] > 100 µM | [17] 37.2 µM | [18] 25.5 µM | [19] 44.6 µM

CCOC(=O)c1ccc(Nc2c3c(nc4ccccc24)CCCC3)cc1
inactive: [1] 29.2 µM | [2] > 38.6 µM | [3] > 100 µM | [4] > 56.4 µM | [5] 10.6 µM | [6] 4.91 µM | [7] > 21.2 µM | [8] > 34.2 µM | [9] 1.77 µM | [10] 1.76 µM | [11] 3.22 µM | [12] 43.2 µM | [13] > 100 µM | [14] 76.2 µM | [15] 17.1 µM | [16] > 100 µM | [17] > 100 µM | [18] > 86.1 µM | [19] 30.3 µM

C=C1c2nc3ccccc3n2C=C(c2ccccc2)N1c1ccc(Cl)cc1
inactive: [1] 5.83 µM | [2] 15.8 µM | [3] > 64.3 µM | [4] 65.6 µM | [5] 18.7 µM | [6] 10.6 µM | [7] 45.8 µM | [8] 17.1 µM | [9] > 82.8 µM | [10] 78.9 µM | [11] > 100 µM | [12] 12.6 µM | [13] > 55.3 µM | [14] > 100 µM | [15] 12.6 µM | [16] > 100 µM | [17] > 63.5 µM | [18] 32.2 µM | [19] 19.1 µM

CN1N=C(c2ccccc2)C(C(c2ccccc2[N+](=O)[O-])C2C(=O)N(C)N=C2c2ccccc2)C1=O (configuration not stated)
inactive: [1] > 70 µM | [2] > 100 µM | [3] > 100 µM | [4] 53 µM | [5] 93.1 µM | [6] 25.1 µM | [7] 26.9 µM | [8] > 100 µM | [9] > 100 µM | [10] > 100 µM | [11] 37.6 µM | [12] > 100 µM | [13] 34.3 µM | [14] 97.7 µM | [15] > 100 µM | [16] > 100 µM | [17] > 95.1 µM | [18] > 71.4 µM | [19] 61.2 µM

CC(=O)O[C@H]1C[C@@H](OC(C)=O)[C@@](C)(O)[C@@H]2[C@@H](OC(C)=O)[C@@]3(O)[C@H](/C=C(/CO)[C@H]4O[C@H]4[C@@H](OC(C)=O)[C@@]12C)OC(=O)[C@@H]3C
inactive: [1] 7.64 µM | [2] 10.4 µM | [3] 9.35 µM | [4] 8.91 µM | [5] 7.26 µM | [6] 8.17 µM | [7] 8.71 µM | [8] 10.8 µM | [9] 5.42 µM | [10] 3.09 µM | [11] 16.4 µM | [12] 8.13 µM | [13] 9.86 µM | [14] 19.1 µM | [15] 6.12 µM | [16] 22.3 µM | [17] 12.2 µM | [18] 13.7 µM | [19] 7.64 µM

COC(=O)C12C3C4C1C1C2C3C41C(=O)NC(C)(C)CC(=O)O (configuration not stated)
inactive: [1] > 100 µM | [2] > 100 µM | [3] > 100 µM | [4] > 100 µM | [5] > 100 µM | [6] > 100 µM | [7] > 100 µM | [8] > 100 µM | [9] > 100 µM | [10] > 100 µM | [11] > 100 µM | [12] 20.7 µM | [13] > 100 µM | [14] > 100 µM | [15] > 100 µM | [16] > 100 µM | [17] > 100 µM | [18] > 100 µM | [19] > 100 µM

O=c1c(=O)c2c(Br)sc(Br)c2c1=O
inactive: [1] 22.6 µM | [2] > 100 µM | [3] 20.3 µM | [4] 57.3 µM | [5] 30.2 µM | [6] 18.2 µM | [7] 19.7 µM | [8] 19.8 µM | [9] 19.1 µM | [10] 18.1 µM | [11] 24.3 µM | [12] > 100 µM | [13] 21.6 µM | [14] 33 µM | [15] > 100 µM | [16] 14.7 µM | [17] 17.3 µM | [18] 19.5 µM | [19] 20.1 µM

O=C1C2C=CC1C1C(=O)OC(=O)C21 (configuration not stated)
inactive: [1] > 100 µM | [2] > 100 µM | [3] > 100 µM | [4] > 100 µM | [5] > 100 µM | [6] > 100 µM | [7] > 100 µM | [8] > 100 µM | [9] > 100 µM | [10] > 100 µM | [11] > 100 µM | [12] > 100 µM | [13] > 100 µM | [14] > 100 µM | [15] > 100 µM | [16] > 100 µM | [17] > 100 µM | [18] > 100 µM | [19] > 100 µM

COc1ccccc1/C=C/c1cnccn1
inactive: [1] > 10 µM | [2] > 10 µM | [3] > 10 µM | [4] > 10 µM | [5] > 10 µM | [6] > 10 µM | [7] > 10 µM | [8] > 10 µM | [9] > 10 µM | [10] > 10 µM | [11] > 10 µM | [12] > 10 µM | [13] > 10 µM | [14] > 10 µM | [15] > 10 µM | [16] > 10 µM | [17] > 10 µM | [18] > 10 µM | [19] > 10 µM

COC(=O)C1OC(O[C@H]2CC[C@]3(C)[C@H]4CC=C5[C@@H]6CC(C)(C)CC[C@]6(C(=O)OC6OCC(O)C(O)C6OC6OC(C)C(OC7OCC(O)C(O)C7O)C(O)C6O)CC[C@@]5(C)[C@]4(C)CC[C@H]3C2(C)C)C(O)C(O)C1O (some centres not stated)
inactive: [1] 15.7 µM and 17.5 µM | [2] 16.9 µM and 19.5 µM | [3] 13.1 µM and 16.9 µM | [4] 11.9 µM and 14.2 µM | [5] 17.9 µM and 18.4 µM | [6] 24.8 µM and 45.8 µM | [7] 16.4 µM and 14.6 µM | [8] 15.3 µM and 18.2 µM | [9] 19.1 µM and 17.9 µM | [10] 18.5 µM and 15.9 µM | [11] 19.3 µM and 18.1 µM | [12] 34.5 µM and 20 µM | [13] 23.9 µM and 18.8 µM | [14] 17.3 µM and 19.6 µM | [15] 18.2 µM and 17.4 µM | [16] 14.4 µM and 16.6 µM | [17] 13.4 µM and 16.4 µM | [18] 14 µM and 16 µM | [19] 18 µM and 18.2 µM

NCCNCCCNC(=O)c1cc(-c2ccccc2)nc2ccccc12
inactive: [1] 22.3 µM | [2] 41.6 µM | [3] 16.2 µM | [4] 19.6 µM | [5] 27.2 µM | [6] > 100 µM | [7] 28.3 µM | [8] 15.1 µM | [9] 20.8 µM | [10] 25.5 µM | [11] 22.1 µM | [12] 35.2 µM | [13] 54 µM | [14] 26.1 µM | [15] 28.6 µM | [16] 16.7 µM | [17] 40.8 µM | [18] 24.1 µM | [19] 19.9 µM

C[C@]12Cc3cnc(-c4ccccc4)nc3C[C@@H]1CC[C@@H]1[C@@H]2CC[C@@]2(C)[C@H]1CC[C@]2(C)O
inactive: [1] 10.2 µM | [2] 12.8 µM | [3] 11.7 µM | [4] 14.2 µM | [5] 13.6 µM | [6] 19.7 µM | [7] 4.6 µM | [8] 11.1 µM | [9] 20.8 µM | [10] 16.4 µM | [11] 34.3 µM | [12] 17.3 µM | [13] 5.06 µM | [14] 12.9 µM | [15] 14.8 µM | [16] 18.6 µM | [17] 17.9 µM | [18] 20.2 µM | [19] 11.2 µM
